Like-named read-outs stand apart in the source and are kept apart here.
Assays:
[1] = test system: MCF-7 breast cancer cells; assay: Growth inhibition by MTT staining, MCF-7; format: cell-based; settings: MCF7, 96 h, Human, tumor cells, treated four days
Protocol: (§1) Growth inhibitory effects of PCNA-I1 and PCNA-I2 were assessed in human cancer cell lines, mouse cancer cell lines, immortalized mouse cell lines, and human primary cell lines. Specifically, growth inhibitory effects of PCNA-I1 and PCNA-I2 were assessed using MTT staining in the following cells lines: 1) human cancer cell lines including LNCaP (androgen receptor […]), 22Rv1, DU-145, LAPC-4, and PC-3 (androgen receptor […]) prostate cancer cells; MCF-7 and T47D breast cancer cells; A375 and MDA-MB435 melanoma cells; 2) mouse cancer cell lines including TRAMP-C2RE3 prostate cancer cells, B16 and K1735 melanoma cells, UV2237 fibrosarcoma cells, and CT-26 colon cancer cells; 3) immortalized mouse lung cell lines and mouse endothelial cell lines; and 4) primary human cell lines including umbilical endothelial cells (HUVEC, PromoCell, Heidelberg, Germany), primary bone marrow mesenchymal stem cells (HuMSC, PromoCell), primary human mammary epithelial cells (HuBrEC, Lonza, Walkersville, Md.), primary human prostate epithelial cells (HuPrEC, Lonza), and primary mouse spleen lymphocytes (isolated in this laboratory), and primary mouse bone marrow stromal cells (isolated in this laboratory). […]
(§2) IC50 values were derived from growth inhibition curves. […] Inhibition of cell growth was calculated using the formula: growth inhibition (%)=(1−A570 of treated/A570 of control)×100. […]

[2] = test system: A375 melanoma cells; assay: Growth inhibition by MTT staining, A375; format: cell-based; settings: A-375, 96 h, Human, treated four days
Protocol: as §1, §2

[3] = test system: LNCaP prostate cancer cells; assay: Growth inhibition by MTT staining, LNCaP; format: cell-based, Human; settings: 96 h
Protocol: (§3) Growth inhibitory effects of PCNA-I1 and PCNA-I2 were assessed in human cancer cell lines, mouse cancer cell lines, immortalized mouse cell lines, and human primary cell lines. Specifically, growth inhibitory effects of PCNA-I1 and PCNA-I2 were assessed using MTT staining in the following cells lines: 1) human cancer cell lines including LNCaP (androgen receptor […]), 22Rv1, DU-145, LAPC-4, and PC-3 (androgen receptor […]) prostate cancer cells; MCF-7 and T47D breast cancer cells; A375 and MDA-MB435 melanoma cells; 2) mouse cancer cell lines including TRAMP-C2RE3 prostate cancer cells, B16 and K1735 melanoma cells, UV2237 fibrosarcoma cells, and CT-26 colon cancer cells; 3) immortalized mouse lung cell lines and mouse endothelial cell lines; and 4) primary human cell lines including umbilical endothelial cells (HUVEC, PromoCell, Heidelberg, Germany), primary bone marrow mesenchymal stem cells (HuMSC, PromoCell), primary human mammary epithelial cells (HuBrEC, Lonza, Walkersville, Md.), primary human prostate epithelial cells (HuPrEC, Lonza), and primary mouse spleen lymphocytes (isolated in this laboratory), and primary mouse bone marrow stromal cells (isolated in this laboratory). PCNA-I1 and PCNA-I2 were either provided by the University of Cincinnati Drug Discovery Center (UC-DDC, Cincinnati, Ohio) or were purchased from Chembridge Co (San Diego, Calif.), ChemDiv (San Diego, Calif.), and/or Sigma-Aldrich (St Louis, Mo.).
(§4) Growth inhibitory effects of the compounds were assessed by MTT staining as described previously by Dong et al. in In Vitro Model for Intrinsic Drug Resistance: Effects of Protein Kinase C Activators on the Chemosensitivity of Cultured Human Colon Cancer Cells; Mol. Pharmacol. 1991; 39: 563-9. Briefly, cells were cultured and treated in their respective media. Cells were plated into 96-well plates at 1000 to 5000 cells/well. After an overnight incubation, the cells were treated for four days with various concentrations (up to 10 μM) of PCNA-I1 or PCNA-I2. The live cells were stained with MTT and cells in exponential growth phase were harvested by a one to three minute treatment with a 0.25% trypsin-0.02% EDTA solution. Flasks were tapped to detach the cells, RPMI 1640-10% FBS was added, and the cell suspensions were gently agitated to produce single-cell suspensions. The cell suspensions were washed and resuspended in medium with supplements specified for different cells. Only suspensions of single cells with a viability exceeding 95% (ascertained by trypan blue exclusion) were used.
(§5) IC50 values were derived from growth inhibition curves. Data for tumor cells are a mean of five to seven experiments. Data for primary cells are a mean of three experiments. […] Inhibition of cell growth was calculated using the formula: growth inhibition (%)=(1−A570 of treated/A570 of control)×100. IC50 (the concentration that inhibited cell growth by 50%) values were also determined. For evaluation of lymphocyte growth in suspension, an Alamar blue assay was performed, wherein freshly prepared mouse spleen lymphocytes were stimulated for 72 H with 2 ug/mL concanavalin A (Sigma Chemicals, St. Louis, […].). During the last 24 H, 20 μl/well of Alamar blue (Invitrogen, Carlsbad, Calif.) was added. The fluorescence intensity was measured at 530/580 (excitation/emission) in the FLUOstar Omega microplate reader (BMG LABTECH, Cary, N.C.).
(§6) Growth inhibitory effects of PCNA-I3, PCNA-I4, PCNA-I6, PCNA-I7, PCNA-I8, PCNA-I9 and PCNA-I10 were assessed in human prostate cancer cell lines. Specifically, growth inhibitory effects of PCNA-I3, PCNA-I4, PCNA-I6, PCNA-I7, PCNA-I8, PCNA-I9 and PCNA-I10 were assessed using MTT staining in LNCaP and PC-3 cells. […]

[4] = test system: LAPC-4 prostate cancer cells; assay: Growth inhibition by MTT staining, LAPC-4; format: cell-based; settings: LAPC4, 96 h, Human tumor cells, treated four days
Protocol: as §1, §2

[5] = test system: Tumor Cells; assay: Growth inhibition, mean over tumor cell lines; format: cell-based; settings: most cell lines examined
Protocol: as §1, §2

[6] = test system: DU145 prostate cancer cells; assay: Growth inhibition by MTT staining, DU145; format: cell-based; settings: DU-145, 96 h, Human tumor cells, treated four days
Protocol: as §1, §2

[7] = test system: PC-3 prostate cancer cells; assay: Growth inhibition by MTT staining, PC-3; format: cell-based, Human; settings: MTT
Protocol: as §3, §4, §5, §6

[8] = biological target: T1, PCNA (Homo sapiens, UniProt P12004); assay: PCNA trimer formation assay, PC-3 cell lysate; format: biochemical; settings: PC-3 lysate, 1 μM or 10 μM, 3 H, SDS-PAGE; FIG. 9(A)
T1 construct: endogenous PCNA was knocked down with transfection of PCNA-specific siRNA; endogenous in cells; host or cells: PC-3
T1 sequence (P12004 whole entry): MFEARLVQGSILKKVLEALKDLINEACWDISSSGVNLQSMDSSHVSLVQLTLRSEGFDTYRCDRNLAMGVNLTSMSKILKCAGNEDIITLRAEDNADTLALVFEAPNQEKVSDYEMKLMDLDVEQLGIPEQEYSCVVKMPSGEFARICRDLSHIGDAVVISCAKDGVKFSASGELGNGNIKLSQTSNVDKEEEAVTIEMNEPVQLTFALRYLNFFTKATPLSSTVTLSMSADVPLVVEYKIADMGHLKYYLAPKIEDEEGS
Protocol: The effect of PCNA-I1, PCNA-I2, PCNA-I3, PCNA-I4, PCNA-I6, PCNA-I7, PCNA-I8, PCNA-I9, and PCNA-I10 on PCNA trimer formation was investigated by SDS-PAGE and immunoblotting. Specifically, a trimer formation assay was performed on both PC-3 cell lysates and purified recombinant protein. The trimer formation assay was performed on purified recombinant protein to determine whether the effects of PCNA compounds on the stable trimer formation required the participation of other cellular proteins.
Purified His-PCNA (0.1 μg/reaction) and PC-3 cell lysates (50 μg/reaction) were incubated for 3 H at room temperature in a reaction buffer (40 mM Tris-HCl, pH 7.5, 0.2 mg/mL BSA, 10 mM MgCl2, and 10% glycerol) in the absence or presence of DMSO (0.1% vehicle control) or PCNA-I1, PCNA-I2, PCNA-I3, PCNA-I4, PCNA-I6, PCNA-I7, PCNA-I8, PCNA-I9, or PCNA-I10 (1 μM or 10 μM). The reaction was stopped by addition of the SDS-PAGE sample buffer without a reducing agent. The samples were resolved in SDS-PAGE without boiling and analyzed by immunoblotting using PCNA antibody.

[9] = test system: GFP-PCNA; assay: GFP-PCNA chromatin association, fluorescence microscopy; format: cell-based, Human; settings: PC-3 transfected with pGFP-PCNA; 4 H, 0.5 μM PCNA-I1 or 2 μM PCNA-I2; FIG. 11
Protocol: Additionally, PC-3 cells were transfected for 24 H with pGFP-PCNA. The cells were then treated for 4 H with 0.5 μM of PCNA-I1 or 2 μM of PCNA-I2. The intact GFP-PCNA expressing cells were observed under a fluorescent microscope and recorded. After treatment with a buffer with 0.5% NP-40 buffer B, the cells were examined and recorded.

[10] = test system: LNCaP cells; assay: DNA damage, apoptosis and cell cycle proteins by immunoblot, LNCaP; format: cell-based, Human
Protocol: Fluorescence-activated cell sorting (FACS) analysis was performed on both PC-3 cells and LNCaP cells using PCNA-I1. Specifically, cells were treated with 1 or 10 μM PCNA-I1 and sampled for the flow cytometry analysis at 24 H, 48 H, and 72 H. Expression of DNA damage and apoptosis-related proteins in PC-3 cells and LNCaP cells was also determined. Cisplatin, a well-known drug that induces DNA damage and apoptosis, was included in the experiment. LNCaP cells were treated for 6 H, 12 H, or 18 H with 10 μM PCNA-I1, 10 μM cisplatin, or both.
To further explore the differential effects of PCNA-I1 on LNCaP and PC-3 cells, the effects of PCNA-I1 and cisplatin on expression of cell cycle- and apoptosis-related proteins in the two cell lines were compared. LNCaP cells and PC-3 cells were treated with 1 μM PCNA-I1 and/or 5 μM cisplatin for 12 H, 18 H, or 24 H and cell lysates were sampled for immunoblotting.

[11] = test system: LNCaP cells; assay: MTT assay, PCNA-I1 and cisplatin alone or combined, LNCaP; format: cell-based, Human
Protocol: (§7) LNCaP or PC-3 cells were treated with a variety of concentrations of PCNA-I1 (0.1-10 μM) or cisplatin (0.1-10 μM) alone, or with a variety of concentrations of a combination of PCNA-I1 (0.1-10 μM) and cisplatin (0.1-10 μM) for four days. MTT assays were performed and IC50 values for PCNA-I1 and cisplatin were determined.

[12] = test system: PC-3 cells; assay: MTT assay, PCNA-I1 and cisplatin alone or combined, PC-3; format: cell-based, Human
Protocol: as §7

[13] = test system: primary mouse spleen lymphocytes; assay: Alamar blue assay of lymphocyte growth; format: cell-based; settings: 2 μg/mL, 72 H; FIG. 2(A)
Protocol: as §5
The effects of PCNA-I1 on growth of tumor cells versus primary cells was also investigated. Specifically, the effects of PCNA-1I on the growth of primary cells was investigated using primary culture of mouse lymphocytes. An Alamar blue assay was performed with PC-3 cells as a positive control. Freshly prepared mouse spleen lymphocytes were stimulated for 72 H with 2 μg/mL of concanavalin A. During the last 24 H, 20 μL/well of alamar blue was added. The fluorescence intensity was measured at 530/580 (excitation/emission).

[14] = Homo sapiens, Table III, four days, mean of two experiments, read-out: IC50 Values of PCNA Inhibitors, LNCaP Cells
[15] = Homo sapiens, PC-3, 96 h, Table III, four days, mean of two experiments, read-out: IC50 Values of PCNA Inhibitors, PC-3 Cells

## O=C(N/N=C/c1c(O)ccc2ccccc12)c1ccn[nH]1 [PCNA-I2]
[1]
  IC50: 1010 nM
[2]
  IC50: 3.75 µM
[3]; Table II, Human tumor cells, treated four days, mean of five to seven experiments, read-out: IC50 Values, LNCaP
  IC50: 560 nM
[4]
  IC50: 1790 nM
[5]
  Potency relative to PCNA-I1: about three to five times less potent than PCNA-I1
[6]
  IC50: 1190 nM
[7]; 96 h, Table II, Human tumor cells, treated four days, mean of five to seven experiments, read-out: IC50 Values, PC-3
  IC50: 970 nM
[8]
  Portion of PCNA in the trimer form: significantly elevated
[9]
  Level of chromatin-associated GFP-PCNA: reduced the level of chromatin-associated GFP-PCNA
  Total intensity of GFP-PCNA: did not significantly alter the total intensity of GFP-PCNA

## O=C(N/N=C/c1ccc2ccccc2c1O)c1cccc(Cl)c1 [PCNA-I3]
[3]; [14]
  IC50: 260 nM
[7]; [15]
  IC50: 440 nM

## O=C(NNS(=O)(=O)c1ccc(Br)cc1)c1c(O)c2ccccc2[nH]c1=O [PCNA-I4]
[3]; [14]
  IC50: 680 nM
[7]; [15]
  IC50: 3000 nM

## Cc1ccc2[nH]c(=O)c(/C=N/NC(=O)c3ccccc3)c(O)c2c1 [PCNA-I6]
[3]; [14]
  IC50: > 10000 nM
[7]; [15]
  IC50: > 10000 nM

## O=C(N/N=C/c1ccc2ccccc2c1O)c1sc2ccccc2c1O [PCNA-I7]
[3]; [14]
  IC50: 2200 nM
[7]; [15]
  IC50: 3600 nM

## C/C(=N\NC(=O)c1cccc(F)c1)c1ccc2ccccc2c1O [PCNA-I8]
[3]; [14]
  IC50: 680 nM
[7]; [15]
  IC50: 1000 nM

## C/C(=N\NC(=O)c1ccccc1O)c1ccc2ccccc2c1O [PCNA-I9]
[3]; [14]
  IC50: 710 nM
[7]; [15]
  IC50: 2200 nM

## O=C(NNC(=O)c1c(O)c2ccccc2[nH]c1=O)c1ccccc1[N+](=O)[O-] [PCNA-I10]
[3]; [14]
  IC50: 2200 nM
[7]; [15]
  IC50: > 10000 nM

## N.N.[Cl][Pt][Cl] [cisplatin, reference compound]
[10]; LNCaP and PC-3, 1 μM PCNA-I1 and/or 5 μM cisplatin, 12-24 H
  Expression of retinoblastoma (Rb) and cyclin D1: moderately downregulated expression of cell cycle-regulating proteins
[10]; LNCaP, 10 μM
  Phosphorylation of p53, single agent: induced
[10]; LNCaP, 10 μM PCNA-I1 and/or 10 μM cisplatin
  Expression of p21 protein: enhanced expression of p21 protein at 6 H and 12 H
[10]; LNCaP, 10 μM alone
  PARP cleavage, single agent: induced PARP cleavage
[10]; LNCaP, 10 μM alone, 6-18 H, FIG. 17(A)
  DNA double strand break (γH2AX induction), single agent: induced moderate double strand break (DSB) of DNA
[11]; MTT, four days, single agent, read-out: IC50 doses for cell growth inhibition, LNCaP, agent alone
  IC50: 650 nM
[11]; combined with 0.067 μM PCNA-I1, read-out: Cisplatin concentration giving 50% inhibition in combination, LNCaP
  IC50: 300 nM
[12]; MTT, four days, single agent, read-out: IC50 doses for cell growth inhibition, PC-3, agent alone
  IC50: 450 nM
[12]; combined with 0.08 μM PCNA-I1, read-out: Cisplatin concentration giving 50% inhibition in combination, PC-3
  IC50: 300 nM

## concanavalin A [reference compound]
[13]
  Stimulation of lymphocyte growth: about 3.5 fold
